Our source for the Activity, Ratio IC50 and Vmax/Km values is ChEMBL document CHEMBL4196070, “Development of Piperazinediones as dual inhibitor for treatment of Alzheimer's disease” (Eur J Med Chem, 2018).

Activity calls are given as the source filed them. The calls are words filed in the database; no cut-off is given here.

Assay [1] in a line: Antioxidant activity assessed as DPPH radical scavenging activity at 10 uM after 25 mins. Format: functional. Background: DPPH is a stable violet radical that fades when it is reduced.
Assay [2] can be described thus: Antioxidant activity assessed as DPPH radical scavenging activity at 20 uM after 25 mins. Format: functional.
Assay [3] can be described thus: Selectivity index, ratio of IC50 for electric eel AChE to IC50 for equine serum BuChE.
Assay [4] addresses Acetylcholinesterase (Electrophorus electricus) (UniProt O42275). As to the kind of experiment: Ratio of Vmax to Km for substrate for inhibition of electric eel AChE at 10 nM preincubated for 30 mins followed acetylthiocholine iodide substrate addition by Lineweaver-Burk plot analysis.
Assay [5] has the same target. As to the kind of experiment: Ratio of Vmax to Km for substrate for inhibition of electric eel AChE at 20 nM preincubated for 30 mins followed acetylthiocholine iodide substrate addition by Lineweaver-Burk plot analysis.
Assay [6] shares this target. As to the kind of experiment: Ratio of Vmax to Km for substrate for inhibition of electric eel AChE at 40 nM preincubated for 30 mins followed acetylthiocholine iodide substrate addition by Lineweaver-Burk plot analysis.
Assay [7] can be described thus: Metal chelating activity assessed as compound-Cu2+ complex formation at 600 uM after 8 hrs by UV spectroscopic analysis.
The subject of assay [8] is Mus musculus. The assay is described as follows: Reversal of scopolamine-induced amnesic effect in Swiss albino mouse assessed as reversal of lowered spontaneous alteration at 5 mg/kg, ip administered once daily for 7 days prior to 4 hrs of training followed by scopolamine challenge and measured after 5 mins by Y-maze test. In kind it is functional, organism-based.
Assay [9] deals with Mus musculus. As to the kind of experiment: Anxiolytic activity in Swiss albino mouse assessed as increase in time spent in novel arm at 20 mg/kg, ip administered once daily for 7 days prior to 4 hrs of training followed by scopolamine challenge and measured after 5 mins by Y-maze test. Format: functional, organism-based.
For assay [10], the system named is Mus musculus. As to the kind of experiment: Reversal of scopolamine-induced neophobia in Swiss albino mouse assessed as increase in number of novel arm entries at 5 mg/kg, ip administered once daily for 7 days prior to 4 hrs of training followed by scopolamine challenge and measured after 5 mins by Y-maze test. Format: functional, organism-based.
The subject of assay [11] is Mus musculus. As to the kind of experiment: Reversal of scopolamine-induced anxiety in Swiss albino mouse assessed as increase in number of novel arm entries at 5 mg/kg, ip administered once daily for 7 days prior to 4 hrs of training followed by scopolamine challenge and measured after 5 mins by Y-maze test. In kind it is functional, organism-based.
For assay [12], the system named is Mus musculus. The assay is described as follows: Reversal of scopolamine-induced neophobia in Swiss albino mouse assessed as increase in number of novel arm entries at 10 mg/kg, ip administered once daily for 7 days prior to 4 hrs of training followed by scopolamine challenge and measured after 5 mins by Y-maze test. In kind it is functional, organism-based.
The subject of assay [13] is Mus musculus. As to the kind of experiment: Reversal of scopolamine-induced anxiety in Swiss albino mouse assessed as increase in number of novel arm entries at 10 mg/kg, ip administered once daily for 7 days prior to 4 hrs of training followed by scopolamine challenge and measured after 5 mins by Y-maze test. Format: functional, organism-based.
Assay [14] deals with Mus musculus. The assay is described as follows: Reversal of scopolamine-induced memory deficit in ip dosed Swiss albino mouse assessed as increase in transfer latency time of retention trial administered once daily for 7 days followed by scopolamine challenge and subsequent training session for 5 mins by passive avoidance test. In kind it is functional, organism-based.
For assay [15], the system named is Mus musculus. As to the kind of experiment: Restoration of brain mitochondrial membrane potential in scopolamine-induced Swiss albino mouse amnesia model at 5 mg/kg, ip administered once daily for 7 days followed by scopolamine challenge by tetramethylrhodamine dye-based fluorescence assay. Format: functional, organism-based.
In assay [16] the test system is Mus musculus. The assay is described as follows: Antialzheimer activity in Swiss albino mouse assessed as reversal of scopolamine-induced AChE level in brain at 5 mg/kg, ip administered once daily for 7 days followed by scopalamine challenge using acetylthiocholine iodide as substrate by Ellman's method. Format: functional, organism-based. On the technique in general: Ellman's reagent forms a yellow product with free thiols.

Assay [17] relates to Mus musculus. The assay is described as follows: Neuroprotective activity in scopolamine-induced amnesia Swiss albino mouse model assessed as decrease in neurodegenerative lesions in brain at 10 mg/kg, ip administered once daily for 7 days followed by scopolamine challenge by histopathological method. In kind it is functional, organism-based.
Assay [18] deals with Mus musculus. As to the kind of experiment: Reversal of scopolamine-induced amnesic effect in Swiss albino mouse assessed as reversal of lowered spontaneous alteration at 10 mg/kg, ip administered once daily for 7 days prior to 4 hrs of training followed by scopolamine challenge and measured after 5 mins by Y-maze test. In kind it is functional, organism-based.
Assay [19] has as its system Mus musculus. As to the kind of experiment: Reversal of scopolamine-induced neophobia in Swiss albino mouse assessed as increase in number of novel arm entries at 5 to 10 mg/kg, ip administered once daily for 7 days prior to 4 hrs of training followed by scopolamine challenge and measured after 5 mins by Y-maze test. Format: functional, organism-based.
Assay [20] concerns Mus musculus. As to the kind of experiment: Reversal of scopolamine-induced anxiety in Swiss albino mouse assessed as increase in number of novel arm entries at 5 to 10 mg/kg, ip administered once daily for 7 days prior to 4 hrs of training followed by scopolamine challenge and measured after 5 mins by Y-maze test. In kind it is functional, organism-based.
The test system of assay [21] is Mus musculus. As to the kind of experiment: Antialzheimer activity in Swiss albino mouse assessed as reversal of scopolamine-induced AChE level in brain at 10 mg/kg, ip administered once daily for 7 days followed by scopalamine challenge using acetylthiocholine iodide as substrate by Ellman's method. In kind it is functional, organism-based.
In assay [22] the test system is Mus musculus. As to the kind of experiment: Restoration of brain catalase level in scopolamine-induced Swiss albino mouse amnesia model at 10 mg/kg, ip administered once daily for 7 days followed by scopolamine challenge by spectrophotometric analysis. Format: functional, organism-based.
Assay [23] deals with Mus musculus. As to the kind of experiment: Reversal of scopolamine-induced memory deficit in Swiss albino mouse assessed as increase in transfer latency time of retention trial at 10 mg/kg, ip administered once daily for 7 days followed by scopolamine challenge and subsequent training session for 5 mins by passive avoidance test. In kind it is functional, organism-based.

Chain of Acetylcholinesterase (Electrophorus electricus) (O42275 24-633 limits assumed): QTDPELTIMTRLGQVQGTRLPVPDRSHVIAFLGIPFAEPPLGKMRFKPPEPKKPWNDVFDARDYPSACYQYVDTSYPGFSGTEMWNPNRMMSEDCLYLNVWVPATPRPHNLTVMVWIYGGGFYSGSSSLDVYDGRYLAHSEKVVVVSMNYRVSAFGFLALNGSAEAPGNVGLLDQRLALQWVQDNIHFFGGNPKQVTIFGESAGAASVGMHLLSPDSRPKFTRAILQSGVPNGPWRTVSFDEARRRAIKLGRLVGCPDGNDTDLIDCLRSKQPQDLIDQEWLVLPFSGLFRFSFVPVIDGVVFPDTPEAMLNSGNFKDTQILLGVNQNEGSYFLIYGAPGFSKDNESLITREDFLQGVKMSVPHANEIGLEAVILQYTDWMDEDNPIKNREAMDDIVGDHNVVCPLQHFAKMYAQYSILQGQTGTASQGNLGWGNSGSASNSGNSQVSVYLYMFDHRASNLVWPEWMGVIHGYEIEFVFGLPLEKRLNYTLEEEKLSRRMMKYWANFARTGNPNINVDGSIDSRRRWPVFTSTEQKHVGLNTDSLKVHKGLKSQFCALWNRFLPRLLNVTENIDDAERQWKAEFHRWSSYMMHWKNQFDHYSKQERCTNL

Consider `CCCS(=O)(=O)N1CC(=O)N(S(=O)(=O)CCC)CC1=O`, for which the Activity in assay [1] worked out at 31.4%; in assay [2], 59.2%.

As to `O=C1C(c2ccccc2)N(S(=O)(=O)c2ccc(Cl)cc2)C(=O)C(c2ccccc2)N1S(=O)(=O)c1ccc(Cl)cc1` (stereo unspecified), the Ratio IC50 in assay [3] was found to be 0.2. Moreover, the Vmax/Km in [4] worked out at 0.104 U/min/nM; in assay [5], 0.0696 U/min/nM; in assay [6] it was 0.00052 U/min/nM. In addition, the Activity in assay [1] is 52.9%; in [2], 60.3%; in the assay with Mus musculus [14], “Dose-dependent effect”. Also, the result (in assay [7]; in the assay on Mus musculus [8]; in the assay on Mus musculus [9]; in the assay on Mus musculus [10]; with Mus musculus [11]; in the assay with Mus musculus [15]) was Active. For the same compound, the result with Mus musculus [16] and in the assay with Mus musculus [17] was Active. Besides, the result with Mus musculus [12] and with Mus musculus [13] was inactive.

As for `O=C1C(Cc2ccccc2)N(S(=O)(=O)c2ccc(Br)cc2)C(=O)C(Cc2ccccc2)N1S(=O)(=O)c1ccc(Br)cc1` (stereo unspecified), in assay [3], the Ratio IC50 came to 0.3. Also, the Activity worked out at 47.6% in assay [1] and 64.8% in assay [2].

As for `Cc1cccc(S(=O)(=O)N2C(=O)C(c3ccccc3)N(S(=O)(=O)c3cccc(C)c3)C(=O)C2c2ccccc2)c1` (stereo unspecified), the Ratio IC50 in assay [3] was under 0.4. Besides, the Activity came to 38.6% in assay [1] and 55.2% in assay [2].

Consider `COc1ccc(S(=O)(=O)N2CC(=O)N(S(=O)(=O)c3ccc(OC)cc3)CC2=O)cc1`, for which the Ratio IC50 in assay [3] was under 0.5. Also, the Activity in assay [1] came out at 48.6%; in [2], 57.6%.

Turning to `O=C1C(c2ccccc2)N(S(=O)(=O)c2ccc([N+](=O)[O-])cc2)C(=O)C(c2ccccc2)N1S(=O)(=O)c1ccc([N+](=O)[O-])cc1` (stereo unspecified), in assay [3], the Ratio IC50 was 0.3. Besides, the Activity in [1] worked out at 42.4%; in assay [2], 54.3%.

As to `O=C1C(Cc2ccccc2)N(S(=O)(=O)c2ccc(Cl)cc2)C(=O)C(Cc2ccccc2)N1S(=O)(=O)c1ccc(Cl)cc1` (stereo unspecified), the Ratio IC50 in assay [3] stood at 0.2. The Activity in assay [1] stood at 48.1%; in assay [2], 60%. The result in the assay on Mus musculus [18], in the assay on Mus musculus [19], in the assay on Mus musculus [9], in the assay on Mus musculus [20], with Mus musculus [15] and in the assay with Mus musculus [21] was Active. Further, the outcome with Mus musculus [22] and in the assay on Mus musculus [17] was Active.

As to `O=C1C(Cc2ccccc2)N(S(=O)(=O)c2ccc([N+](=O)[O-])cc2)C(=O)C(Cc2ccccc2)N1S(=O)(=O)c1ccc([N+](=O)[O-])cc1` (stereo unspecified), in assay [3], the Ratio IC50 came to 0.4. The Activity in [1] amounted to 42.9%; in assay [2] it was 54.8%.

With `Nc1ccc(S(=O)(=O)N2C(=O)C(c3ccccc3)N(S(=O)(=O)c3ccc(N)cc3)C(=O)C2c2ccccc2)cc1` (stereo unspecified), the Ratio IC50 in [3] was under 0.5. Moreover, the Activity in assay [1] came out at 56.2%; in assay [2] it was 66.7%.

Turning to `O=C1CN(S(=O)(=O)c2ccc(Br)cc2)C(=O)CN1S(=O)(=O)c1ccc(Br)cc1`, the Ratio IC50 in assay [3] worked out at 0.4. Also, the values for the Activity in assay [1] and in [2] were 47.1% and 60.4%, respectively.

With `O=C1CN(S(=O)(=O)c2ccc(F)cc2)C(=O)CN1S(=O)(=O)c1ccc(F)cc1`, the Ratio IC50 in assay [3] is 0.4. Moreover, the Activity in assay [1] came to 37.1%; in assay [2] it was 50.5%.

On to `O=C1CN(S(=O)(=O)c2cccc(Cl)c2)C(=O)CN1S(=O)(=O)c1cccc(Cl)c1`, for which the Ratio IC50 in assay [3] amounted to 0.3. In addition, the Activity in [1] was 35.7%; in assay [2] it was 55.2%.

As for `O=C1C(Cc2ccccc2)N(S(=O)(=O)c2cccc(O)c2)C(=O)C(Cc2ccccc2)N1S(=O)(=O)c1cccc(O)c1` (stereo unspecified), in assay [3], the Ratio IC50 is 0.3. The Activity in assay [1] worked out at 57.1%; in [2] it was 66.2%.

In the case of `O=C1C(c2ccccc2)N(S(=O)(=O)c2ccc(Br)cc2)C(=O)C(c2ccccc2)N1S(=O)(=O)c1ccc(Br)cc1` (stereo unspecified), the Ratio IC50 in assay [3] was found to be 0.2. Further, the Activity is 45.7% in assay [1] and 63.8% in assay [2].

For the compound `O=C1C(Cc2ccccc2)N(S(=O)(=O)c2cccc(Br)c2)C(=O)C(Cc2ccccc2)N1S(=O)(=O)c1cccc(Br)c1` (stereo unspecified), the Ratio IC50 in assay [3] worked out at 0.4. Moreover, the Activity turned out to be 46.7% in [1] and 64.3% in assay [2].

Take `O=C1C(c2ccccc2)N(S(=O)(=O)c2ccc(O)cc2)C(=O)C(c2ccccc2)N1S(=O)(=O)c1ccc(O)cc1` (stereo unspecified): the Ratio IC50 in [3] is under 0.4. The Activity in assay [1] is 52.9%; in assay [2], 65.2%.

In the case of `O=C1CN(S(=O)(=O)c2ccccc2)C(=O)CN1S(=O)(=O)c1ccccc1`, the Activity is 39.5% in assay [1] and 52.4% in [2].

As for `O=C1C(Cc2ccccc2)N(S(=O)(=O)c2ccc(O)cc2)C(=O)C(Cc2ccccc2)N1S(=O)(=O)c1ccc(O)cc1` (stereo unspecified), the Ratio IC50 in [3] was 0.3. In addition, the values for the Activity in assay [1] and in [2] were 58.1% and 68.6%, respectively.

With `Nc1ccc(S(=O)(=O)N2CC(=O)N(S(=O)(=O)c3ccc(N)cc3)CC2=O)cc1`, the Ratio IC50 in assay [3] is under 0.4. The Activity in assay [1] stood at 55.7%; in [2] it was 62.9%.

Regarding `COc1cc2c(cc1OC)C(=O)C(CC1CCN(Cc3ccccc3)CC1)C2` (stereo unspecified), the figures for the Activity in [1] and in [2] were 60.1% and 74.6%, respectively. For the same compound, in the assay on Mus musculus [23], the result was Active.

For the compound `O=C1O[C@H]([C@@H](O)CO)C(O)=C1O`, the Activity in assay [1] was found to be 37.1%; in assay [2], 48.8%.

With `O=C1C(c2ccccc2)N(S(=O)(=O)c2cccc(Br)c2)C(=O)C(c2ccccc2)N1S(=O)(=O)c1cccc(Br)c1` (stereo unspecified), the Ratio IC50 in assay [3] was found to be 0.4. The Activity amounted to 46.2% in assay [1] and 63.3% in assay [2].

For the compound `CCCCS(=O)(=O)N1CC(=O)N(S(=O)(=O)CCCC)CC1=O`, the Activity in assay [1] was found to be 65.7%; in assay [2], 56.7%.

Take `O=C1CN(S(=O)(=O)c2ccc(Cl)cc2)C(=O)CN1S(=O)(=O)c1ccc(Cl)cc1`: in assay [3], the Ratio IC50 is 0.3. The Activity in [1] amounted to 36.2%; in assay [2] it was 55.2%.

As for `Cc1ccc(S(=O)(=O)N2CC(=O)N(S(=O)(=O)c3ccc(C)cc3)CC2=O)cc1`, in [3], the Ratio IC50 was under 0.6. The Activity in [1] was 34.8%; in assay [2], 46.7%.

Take `Cc1ccc(S(=O)(=O)N2C(=O)C(c3ccccc3)N(S(=O)(=O)c3ccc(C)cc3)C(=O)C2c2ccccc2)cc1` (stereo unspecified): in [3], the Ratio IC50 was under 0.4. In addition, the values for the Activity in [1] and in assay [2] were 38.1% and 56.2%, respectively.
